≈ marks a conversion by molar mass, not a printed value.
Test system: HIV-1 (RF)
Experiment: HIV RNA assay, microplate based compound evaluation in HIV-1 infected MT-2 cells
Type: cell-based
Details: Human immunodeficiency virus 1, MT2, 72 h; HIV-1 (RF) in MT-2 cells, 3 days culture; virus dilutions selected to give this value; read-out: IC90 value (concentration of compound required to reduce the HIV RNA level by 90%)
Description: MT-2 and MT-4 cells were maintained in RPMI 1640 supplemented with 5% fetal calf serum (FCS) for MT-2 cells or 10% FCS for MT-4 cells, 2 mM L-glutamine and 50 μg/mL gentamycin, all from Gibco. HIV-1 RF was propagated in MT-4 cells in the same medium. Virus stocks were prepared approximately 10 days after acute infection of MT-4 cells and stored as aliquots at −70° C. Infectious titers of HIV-1(RF) stocks were 1-3×10^7 PFU (plaque forming units)/mL as measured by plaque assay on MT-2 cells (see below) Each aliquot of virus stock used for infection was thawed only once.
For evaluation of antiviral efficacy, cells to be infected were subcultured one day prior to infection. […]
Cell lysates or purified RNA in 3 M or 5 M GED were mixed with 5 M GED and capture probe to a final guanidinium isothiocyanate concentration of 3 M and a final biotin oligonucleotide concentration of 30 nM. […] Immobilized alkaline phosphatase activity was detected by addition of 100 μL of 0.2 mM 4-methylumbelliferyl phosphate (MUBP, JBL Scientific) in buffer (2.5 M diethanolamine pH 8.9 (JBL Scientific), 10 MM MgCl2, 5 mM zinc acetate dihydrate and 5 mM N-hydroxyethyl-ethylene-diamine-triacetic acid). […] Fluorescence at […] was measured using a microplate fluorometer (Dynateck) exciting at […]. […]

IC90: 0.2 µg/mL (≈ 0.947 µM)
SMILES: Nc1ccn([C@H]2CC[C@@H](CO)O2)c(=O)n1 [ddC, 2′,3′-dideoxycytidine]
